Experimental data reported in US11696903B2, “Compounds and methods for scavenging dicarbonyl electrophiles” (VANDERBILT UNIVERSITY, priority 2019, dated 2023).

Columns and labels:
[1] = Reaction rate of scavengers with dicarbonyl electrophiles / LG relative to lysine; conditions: faster than lysine
Excerpt: Under conditions such as inflammation and/or accumulated mutations, epithelial cells and adjacent immune cells express genes encoding enzymes involved in carcinogenesis, such as prostaglandin-endoperoxide synthase (PGHS2; COX2), NADPH oxidases, and spermine oxidase. The products of these enzymes (prostaglandins, O2D, and H2O2 plus 3-aminopropanal) lead to formation of dicarbonyl electrophiles: levuglandins (LGs), malondialdehyde (MDA), 4-oxo-nonenal (4-O NE), and acrolein. Electrophiles may lead to immune dysfunction and neoplastic risk by forming adducts with proteins and DNA11-15. However, the role of these reactive aldehydes in colon carcinogenesis is previously unknown. The present inventors have discovered that the level of LG-protein adducts is increased in the colon tissues of i) human ulcerative colitis (UC), colitis-associated carcinogenesis (CAC), and CRC; ii) mice treated with azoxymethane-dextran sulfate sodium (AOM-DSS), a model of CAC; and iii) transgenic mice with a tamoxifen-inducible disruption of Apc using the colon-specific, caudal type homeobox 2 (CDX2) Cre (CDX2P-CreERT2;Apcff), which recapitulates sporadic/genetically-driven CRC. […]

[2] = test system: C57BL/6 mice in the AOM-DSS model; test: AOM-DSS model of colitis-associated carcinoma (tumors, dysplasia, body weight); type: in vivo
Method: FIGS. 5A, 5B, 5C, 5D, 5E, 5F, and 5G show mice (n=10-12/group)±AOM-DSS±1.5 mg/ml EtHOBA. (A) Body weight; ″P<0.05 compared to AOM-DSS-treated mice. (B) Tumor number. (C) Average tumor size per mouse. (D) Tumor burden. (E) Number of adenomas. (F) Frequency of diagnoses; ND, no dysplasia. (G) H&E staining; each arrow depicts a tumor. Scale bar, 50 μm.
Animals receive an i.p. injection of the carcinogen AOM (12.5 mg/kg) followed by 3 cycles of 4% DSS, each for 4 days, over a total of 56-77 days. To directly determine the role of electrophiles in colon carcinogenesis, the present inventors tested the effect of EtHOBA in C57BL/6 mice in the AOM-DSS model. Mice were given 1.5 mg/ml EtHOBA one day after AOM and continued throughout the experiments, except during the DSS cycles, to avoid mixing. The present inventors assessed electrophiles in colons of mice treated with AOM-DSS, by IHC for electrophile protein adducts. […] In total, without the scavenger treatment, 25% of mice had HGD and the remaining 75% had L GD; in contrast, in those receiving EtHOBA, 20% had no dysplasia, none had HGD, and 80% had only L GD, a significant overall difference in diagnoses (FIGS. 5F-G).

lysyl-LG adducts = test: Lysyl-LG adducts in gastric tissues of H. pylori-infected mice (LC/ESI/MS/MS); type: in vivo; conditions: EtSA 0.75% in water from one wk post-infection, 8 wk infection
Method: FIGS. 15A, 15B, and 15C are graphs showing C57BL/6 (A) or INS-GAS mice (B) were infected for 8 weeks with H. pylori PMSS1. Lysyl-LG adducts were measured in the gastric tissues by LC/ESI/MS/MS. *P<0.05. (C) Lysyl-LG adducts concentration was determined in AGS cells infected (plain bars) or not (open bars) with H. pylori PMSS1 for 24 h, in the presence or absence of EtSA. *P<0.05 vs. uninfected cells. § P<0.05 vs. infected cells without EtSA.
FIG. 17 is a graph showing reduction in the concentration of lysyl-levuglandin adducts in the stomachs of H. pylori infected mice treated with 2-hydroxybenzylamine for 8 weeks.
As discussed further in the Examples, the human gastric epithelial cell line AGS was infected with Hp PMSS1±10 mM EtSA. FVB/N insulin-gastrin (INS-GAS) mice and Mongolian gerbils were infected for 8 wk with Hp PMSS1 and 7.13, respectively; EtSA (0.75% in water) was given to animals beginning one wk post-infection. Lys-LG adducts, a marker of electrophile reactions, and EtSA were quantified by LC/EST/MS/MS. Histology was analyzed on H&E staining. DNA damage was evaluated by pH2AX staining. Hp colonization was quantified by culture. Mucosal immune responses were determined by RNA profiling and by Luminex assay. Mice were imaged using PET/CT with ^18F-FDG (inflammation marker) and ^18F—NaF (tumor marker). […]

[3] = AOM-DSS, 1.5 mg/ml EtHOBA vs AOM-DSS alone

SMILES: CCc1ccc(O)c(CN)c1 [EtHOBA, 5-ethyl-2-hydroxybenzylamine]
- rate of reaction with dicarbonyl electrophiles [1]: 3 orders of magnitude
- mice with high grade dysplasia (HGD) ([2]; AOM-DSS + EtHOBA, without scavenger 25%): none
- mice with only low-grade dysplasia (LGD) ([2]; AOM-DSS + EtHOBA, without scavenger 75%): 80%
- mice with no dysplasia ([2]; AOM-DSS + EtHOBA, without scavenger all mice had dysplasia): 20%
- Tumor number [2, 3]: significantly less tumors
- body weight loss at each cycle of DSS [2, 3]: less weight loss
- number of histologic adenomas [2, 3]: reduced number
- total tumor burden [2, 3]: lower
- tumor size [2, 3]: lower tumor size
- body weight in control mice ([2]; control mice treated for 56 days, 1.5 mg/ml EtHOBA): no change in body weight
- Lys-LG adducts in infected mice (lysyl-LG adducts): completely inhibited
